US5786332A, “Cytokine restraining agents and methods of use in pathologies and conditions associated with altered cytokine levels” (Trega Biosciences, Inc., priority 1995, dated 1998)

Columns and labels:
Type in all cases: in vivo
Sprague-Dawley rats [1] = experiment: Renal ischemia-reperfusion injury; conditions: I/R + EX-2 (50 or 500 μg/kg iv, not specified)
Method: A. Ischemia-Reperfusion Injury: These experiments were performed to determine if a peptide which has cytokine restraining properties, EX-2, can ameliorate the reperfusion-induced vasoconstriction and reduction in glomerular filtration rate that results from clamping of the renal artery. As a comparison, the NSAID ketorolac was utilized in the same model.
Sprague-Dawley rats (250-300 g) were anesthetized with Inactin® (120 mg/kg). After deep anesthesia was assured, the rats were cannulated in the trachea with polyethylene (PE) tubing (PE 240), jugular vein, femoral artery, bladder (PE 50 for previous 3 cannulations), and left ureter (stretched PE 50). Once cannulation was completed, a 2 cm flank incision above the left kidney was performed and the renal pelvis and vascular bundle were exposed. […]
Just prior to clamping, EX-2 (50 or 500 μg/kg), ketorolac (KETO, 1 mg/kg), or vehicle was administered intravenously (iv) After 1 hr of clamping (ischemia), the clamp was gently removed with care taken to avoid damaging either the renal artery or nerves. […] After 60 min of reperfusion, glomerular filtration rate (GFR), renal plasma flow (RPF) and renal vascular resistance (RVR) were assessed in two 30 min collection periods. […] Contralateral renal function was utilized to determine the stability of the rat's renal function during the measured period.

Sprague-Dawley rats [2] = experiment: Cyclosporine-induced nephrotoxicity
Source text: B. Cyclosporine-Induced Nephrotoxicity: This experiment as performed to ascertain if EX-2 can mitigate the reduction in glomerular filtration rate (GFR) and renal blood flow, as well as the dysfunction in fluid and electrolyte homeostasis induced by immunosuppressive treatment with cyclosporine A.
In the first study, male Sprague-Dawley rats (n=43) with a weight range of 240-290 g at the initiation of the cyclosporine A (CsA) treatment were divided into 4 weight matched groups. The groups were as follows: (1) Control: no CsA, no EX-2, treatment only with CsA vehicle (PBS) PO and EX-2 vehicle (also PBS) IP; (2) CsA: treatment with CsA (50 mg/kg in PBS administered PO daily at 0830 hr for 9 days) and IP injections of PBS (Ex-2 vehicle); (3) CsA and 50 μg: CsA treatment identical to group 2 with the addition of EX-2 (50 μg/kg IP administered daily at 0800 and 1700 hr in EX-2 vehicle); and (4) CsA and 500 μg: CsA treatment identical to groups 2 and 3, and EX-2 treatment protocol similar to group 3 except that the dose of EX-2 was 500 μg/kg BW. After deep anesthesia was assured, the rats were cannulated in the trachea (PE 240) jugular vein, femoral artery, and bladder (PE 50 for the previous 3 cannulations).After cannulation, infusion of ^3 H-inulin was initiated 50 min prior to the measurement period to assess glomerular filtration rate, renal blood flow and plasma flow. Renal blood flow was determined by the inulin extraction technique. At the end of the study, the kidneys were removed for histological analysis.
In the second study, male Sprague-Dawley rats (n=31) with a weight range of 240-290 g at the time of initiation of the cyclosporine treatment were divided into 4 weight-matched groups. […] Renal hemodynamics were determined and extracellular fluid volumes were also assessed.
In the second study, where extracellular fluid volumes (ECF) were measured, there were no differences in ECF among control and treatment groups (27.6±1.9 in control, 27.5±1.7 in CsA and vehicle, 26.2±0.9 in CsA+200 μg/kg EX-2, and 25.7±1.4% in CsA+500 μg/kg EX-2). […]

Balb/c mice = experiment: Arachidonic acid-induced ear swelling; conditions: 100 μg/mouse IP 30 min before AA; 60 min after AA
Method: Experiments were performed using female Balb/c mice weighing 18-23 grams. Saline or 100 μg EX-2 or EX-3 was administered IP, 30 min prior to topical application of arachidonic acid (AA). A 10 μl pipet was used to apply 10 μl AA solution (100 mg/ml ethanol; Calbiochem-Novabiochem; San Diego Calif.) to the inner and outer surfaces of the right ear of each mouse. Ten μl ethanol, alone, was applied to the inner and outer surface of the left ear of each mouse.
Ear thickness was measured with a hand-held spring loaded caliper immediately before and 60 min after AA application. Increase in ear thickness was calculated by subtracting the change observed in the control ear from the change observed in AA-treated ear. The value for each group (saline and control) is the average of the swelling observed in the individual mice in each group. The percent reduction of swelling is based on the swelling observed in the saline control group.

Sprague-Dawley rats [3] = experiment: Disuse deconditioning (tail suspension, 14 days); conditions: 1 or 5 μg/kg IP twice daily
Method: Adult male Sprague-Dawley rats (355-365 g) were used in this study. Animals were housed individually in standard rat cages and were acclimated on a treadmill for 4 days. The next day, a baseline tail bleed was performed, followed by a maximal treadmill stress test the day after. The day following the stress test, the animals were divided into the appropriate treatment and control groups and the animals were suspended by their tails in suspension cages, which simulates weightlessness and, therefore, deconditions the animals. Another group of control animals was placed in standard rat cages with grated flooring similar to that utilized in the suspension cages. All animals were housed one per cage and supplied with food and water ad libitum. Body weights and food consumptions were measured daily. Animals received twice daily IP injections of 1 μg/kg or 5 μg/kg body weight of EX-2 (treated), or 1 ml/kg body weight of saline (control). On day 10, all animals were stress tested on the treadmill until they reached exhaustion. Data on maximum VO2 and running time were collected and compared to pre-suspension results. On day 14, all animals were sacrificed, and blood, tissues, and organs were collected for further analysis. All procedures and tests were performed blind to avoid researcher subjectivity. Statistical significance (p<0.05) between groups was evaluated by ANOVA with Student-Newman-Keuls test for multiple comparisons. All data are reported as the mean ± standard error (SE).
All of the animals were subjected to the stress tests, which measured exercise time and maximal VO2. As well, levels of the oxidative enzyme soleus citrate synthase and tibia bone density were measured.
Soleus citrate synthase was attenuated by 50%.

## Ac-Nle-Gln-His-(D)Phe-Arg-(D)Trp-Gly-NH2 [EX-2]
Sprague-Dawley rats [1]; 1 hr clamp, after 60 min reperfusion, I/R + PBS 0.2 ± 0.1
  GFR (glomerular filtration rate): 0.5 ± 0.1 ml/mm
Sprague-Dawley rats [1]; I/R + PBS 0.8 ± 0.2
  RPF (renal plasma flow): 2.3 ± 0.3 ml/mm
Sprague-Dawley rats [2]; EX-2 IP twice daily with CsA, both studies
  Renal blood flow in CsA-treated rats: improved blood flow to values not different from control
Sprague-Dawley rats [2]; compared to CsA and vehicle controls, both studies
  GFR in CsA-treated rats: significantly increased GFR
Sprague-Dawley rats [2]; compared to CsA-treated rats
  Urinary protein excretion in CsA-treated rats: did not increase urinary protein excretion
Balb/c mice
  Reduction in arachidonic acid-induced Ear Swelling: 72%
Sprague-Dawley rats [3]; day 14
  % Attenuation of suspension-induced decrease: Soleus Citrate Synthase: 50%
  % Attenuation of suspension-induced decrease: Tibia Bone Density: 50%
Sprague-Dawley rats [3]; treadmill day 10
  % Attenuation of suspension-induced decrease: Exercise Time: 44%
  % Attenuation of suspension-induced decrease: Maximal VO2: 80%
